Source: patent US20210101881A1 (Ancureall Pharmaceutical (Shanghai) Co., Ltd., priority 2018, published 2021)

System: MOLM13 cells
Experiment: Growth inhibition of CDK9-positive cell line MOLM13 in vitro (CCK8/MTT assay)
Type: cell-based, human
Details: Homo sapiens, MOLM-13; MOLM13 cells, cultured 3 to 6 days, CCK8; read-out: IC50 of the compound for inhibiting cell growth, MOLM13 cells
Procedure: 1. MOLM13 cell line and cell culture MOLM13 is a CDK9-positive human acute myeloid leukemia cell line from DMSZ. Suspension culture was carried out in RPMI1640 (Gibco) medium with 10% fetal bovine serum (Gibco), 1% penicillin-streptomycin and 2 mM glutamine.
Suspended MOLM-13 cells in logarithmic growth phase were collected by centrifugation (1700 rpm, 3 minutes), the supernatant was discarded, and the cells were counted. A solution with a cell concentration of 2×10^5 cells per milliliter was formulated and inoculated in a 96-well plate (Corning) with 100 microliters per well. The plate was incubated at 37° C., 5% CO2 overnight. On the next day, the test compound was added to the cultured cells in two parallel wells. […]
The present compound and the control compounds were respectively dissolved in DMSO (Sigma).
When the solvent control well became dark yellow, the OD450 nm absorption value was measured, and the cell growth rate was calculated according to the following formula. Cell growth rate %=100*(T−T0)/(C−T0), wherein T=the optical density value of the drug-treated well—the optical density value of the blank control well, T0=the optical density value of the well before drug treatment—the optical density value of the blank control well, C=the optical density value of the solvent control well—the optical density value of the blank control well. […] The assay was repeated three times, and the data was subjected to a biological statistical analysis.

IC50 | Structure (SMILES)
1 to 10 nM | COc1ccc2c(c1)c(C(N)=O)cn2-c1nc(Nc2cccc(N3CCN(C4CCOC4)CC3)c2)ncc1F (stereo not drawn) [Compound 151, 1-(5-fluoro-2-{3-[4-(tetrahydro-furan-3-yl)-piperazin-1-yl]-phenylamino}-pyrimidin-4-yl)-5-methoxy-1H-indole-3-carboxamide]
10 to 100 nM | CN1CCN(c2cc(Nc3ncc(Cl)c(-n4cc(C(N)=O)c5ccccc54)n3)ccc2Cl)CC1 [Compound 120, 1-{5-chloro-2-[4-chloro-3-(4-methyl-piperazin-1-yl)-phenylamino]-pyrimidin-4-yl}-1H-indole-3-carboxamide]
1 to 10 nM | CN1CCN(c2ccc(Nc3ncc(F)c(-n4cc(C(N)=O)c5ccccc54)n3)cc2)CC1 [Compound 52, 1-{5-fluoro-2-[4-(4-methyl-piperazin-1-yl)-phenylamino]-pyrimidin-4-yl}-1H-indole-3-carboxamide]
10 to 100 nM | CN(C)CCN(C)c1ccc(Nc2nccc(-n3cc(C(N)=O)c4ccccc43)n2)cc1 [Compound 77, 1-(2-{4-[(2-dimethylamino-ethyl)-methyl-amino]-phenylamino}-pyrimidin-4-yl)-1H-indole-3-carboxamide]
100 to 1000 nM | CNC(=O)c1cn(-c2ccnc(Nc3ccc(N4CCNCC4)c(Cl)c3)n2)c2ccccc12 [Compound 103, 1-[2-(3-chloro-4-piperazin-1-yl-phenylamino)-pyrimidin-4-yl]-1H-indole-3-carboxmethylamide]
> 1000 nM | NC(=O)c1cn(-c2ccnc(Nc3ccc(F)c([N+](=O)[O-])c3)n2)c2ccccc12 [Compound 6, 1-[2-(4-fluoro-3-nitro-phenylamino)-pyrimidin-4-yl]-1H-indole-3-carboxamide]
1 to 10 nM | CN1CCCN(c2ccc(Nc3nccc(-n4cc(C(N)=O)c5ccccc54)n3)cc2)CC1 [Compound 69, 1-{2-[4-(4-methyl-[1,4]homopiperazin-1-yl)-phenylamino]-pyrimidin-4-yl}-1H-indole-3-carboxamide]
10 to 100 nM | CN1CCN(Cc2cccc(Nc3ncc(F)c(-n4cc(C(N)=O)c5ccccc54)n3)c2)CC1 [Compound 143, 1-{5-fluoro-2-[3-(4-methyl-piperazin-1-ylmethyl)-phenylamino]-pyrimidin-4-yl}-1H-indole-3-carboxamide]
> 1000 nM | COc1ccc(Nc2nccc(-n3cc(C(N)=O)c4ccccc43)n2)cc1OC [Compound 5, 1-[2-(3,4-methoxy-phenylamino)-pyrimidin-4-yl]-1H-indole-3-carboxamide]
100 to 1000 nM | Cc1cnn(-c2cccc(Nc3ncc(F)c(-n4cc(C(N)=O)c5ccccc54)n3)c2)c1 [Compound 154, 1-{5-fluoro-2-[3-(4-methyl-pyrazol-1-yl)-phenylamino]-pyrimidin-4-yl}-1H-indole-3-carboxamide]
10 to 100 nM | C=CC(=O)N1CCN(c2ccc(Nc3nccc(-n4cc(C(N)=O)c5ccccc54)n3)cc2C)CC1 [Compound 64, 1-{2-[4-(4-acryloyl-piperazin-1-yl)-3-methyl-phenylamino]-pyrimidin-4-yl}-1H-indole-3-carboxamide]
10 to 100 nM | CN(C)CCCN(C)c1ccc(Nc2nccc(-n3cc(C(N)=O)c4ccccc43)n2)cc1Cl [Compound 83, 1-(2-{3-chloro-4-[(3-dimethylamino-propyl)-methyl-amino]-phenylamino}-pyrimidin-4-yl)-1H-indole-3-carboxamide]
10 to 100 nM | NC(=O)c1cn(-c2ccnc(Nc3ccc(N4CCNCC4)cc3)n2)c2ccc(Br)cc12 [Compound 32, 5-bromo-1-[2-(4-piperazin-1-yl-phenylamino)-pyrimidin-4-yl]-1H-indole-3-carboxamide]
10 to 100 nM | NC(=O)c1cn(-c2ccnc(Nc3ccc(OCCN4CCNCC4)cc3)n2)c2ccccc12 [Compound 22, 1-(2-{4-[2-(4-piperazin-1-yl)-ethoxy]-phenylamino]-pyrimidin-4-yl}-1H-indole-3-carboxamide]
< 1 nM | COc1cc(Nc2ncc(Cl)c(-n3cc(C(N)=O)c4ccccc43)n2)ccc1N1CCNCC1 [Compound 43, 1-[5-chloro-2-(3-methoxy-4-piperazin-1-yl-phenylamino)-pyrimidin-4-yl]-1H-indole-3-carboxamide]
10 to 100 nM | CNC(=O)c1cn(-c2ccnc(Nc3ccc(C4CCNCC4)cc3)n2)c2ccccc12 [Compound 105, 1-[2-(4-piperidin-4-yl-phenylamino)-pyrimidin-4-yl]-1H-indole-3-carboxmethylamide]

IC50 | Structure (SMILES)
1 to 10 nM | CCN1CCN(c2cccc(Nc3ncc(F)c(-n4cc(C(N)=O)c5cc(OCCOC)ccc54)n3)c2)CC1 [Compound 164, 1-{2-[3-(4-ethyl-piperazin-1-yl)-phenylamino]-5-fluoro-pyrimidin-4-yl}-5-(2-methoxy-ethoxy)-1H-indole-3-carboxamide]
> 1000 nM | NC(=O)c1cn(-c2ccnc(Nc3ccc(N4CCNCC4)cn3)n2)c2ccccc12 [Compound 133, 1-[2-(5-piperazin-1-yl-pyridin-2-ylamino)-pyrimidin-4-yl]-1H-indole-3-carboxamide]
10 to 100 nM | CN1CCN(c2c(F)cc(Nc3nccc(-n4cc(C(N)=O)c5ccccc54)n3)cc2F)CC1 [Compound 47, 1-{2-[3,5-difluoro-4-(4-methyl-piperazin-1-yl)-phenylamino]-pyrimidin-4-yl}-1H-indole-3-carboxamide]
10 to 100 nM | NC(=O)c1cn(-c2ccnc(Nc3ccc(CN4CCOCC4)cc3)n2)c2ccccc12 [Compound 14, 1-[2-(4-morpholin-4-methyl-phenylamino)-pyrimidin-4-yl]-1H-indole-3-carboxamide]
< 1 nM | CC(C)(C)N1CCN(c2cccc(Nc3ncc(F)c(-n4cc(C(N)=O)c5ccccc54)n3)c2)CC1 [Compound 147, 1-{2-[3-(4-tert-butyl-piperazin-1-yl)-phenylamino]-5-fluoro-pyrimidin-4-yl}-1H-indole-3-carboxamide]
1 to 10 nM | NC(=O)c1cn(-c2nc(Nc3cccc(N4CCOCC4)c3)ncc2F)c2ccccc12 [Compound 137, 1-[5-fluoro-2-(3-morpholin-4-yl-phenylamino)-pyrimidin-4-yl]-1H-indole-3-carboxamide]
10 to 100 nM | NC(=O)c1cn(-c2nc(Nc3cccc(N4CCN(C(=O)C5CCCO5)CC4)c3)ncc2F)c2ccccc12 (stereo not drawn) [Compound 158, 1-(5-fluoro-2-{3-[4-(tetrahydro-furan-2-carbonyl)-piperazin-1-yl]-phenylamino}-pyrimidin-4-yl)-1H-indole-3-carboxamide]
100 to 1000 nM | NC(=O)c1cn(-c2nc(Nc3cccc(-n4cccn4)c3)ncc2F)c2ccccc12 [Compound 153, 1-[5-fluoro-2-(3-pyrazol-1-yl-phenylamino)-pyrimidin-4-yl]-1H-indole-3-carboxamide]
10 to 100 nM | NC(=O)c1cn(-c2ccnc(Nc3ccc(N4CCC(N5CCCCC5)CC4)cc3)n2)c2ccccc12 [Compound 24, 1-[2-(4-[1,4′]bipiperidin-1′-yl-phenylamino)-pyrimidin-4-yl]-1H-indole-3-carboxamide]
10 to 100 nM | CCC(=O)N1CCN(c2ccc(Nc3nccc(-n4cc(C(N)=O)c5ccccc54)n3)cc2C)CC1 [Compound 65, 1-{2-[3-methyl-4-(4-propionyl-piperazin-1-yl)-phenylamino]-pyrimidin-4-yl}-1H-indole-3-carboxamide]
1 to 10 nM | CN1CCN(c2ccc(Nc3ncc(F)c(-n4cc(C(N)=O)c5ccccc54)n3)cc2F)CC1 [Compound 54, 1-{5-fluoro-2-[3-fluoro-4-(4-methyl-piperazin-1-yl)-phenylamino]-pyrimidin-4-yl}-1H-indole-3-carboxamide]
100 to 1000 nM | CN(CCN1CCCC1)c1ccc(Nc2nccc(-n3cc(C(N)=O)c4ccccc43)n2)cc1F [Compound 92, 1-(2-{3-fluoro-4-[methyl-(2-pyrrolidin-1-yl-ethyl)-amino]-phenylamino}-pyrimidin-4-yl)-1H-indole-3-carboxamide]
1 to 10 nM | Cc1cc(Nc2ncc(F)c(-n3cc(C(N)=O)c4ccccc43)n2)ccc1N(C)CCN1CCCC1 [Compound 96, 1-(5-fluoro-2-{3-methyl-4-[methyl-(2-pyrrolidin-1-yl-ethyl)-amino]-phenylamino}-pyrimidin-4-yl)-1H-indole-3-carboxamide]
10 to 100 nM | NC(=O)c1cn(-c2ccnc(Nc3ccc(N4CCN(CCO)CC4)cc3)n2)c2ccccc12 [Compound 25, 1-(2-{4-[4-(2-hydroxy-ethyl)-piperazin-1-yl]-phenylamino}-pyrimidin-4-yl)-1H-indole-3-carboxamide]
1 to 10 nM | COc1cnc(Nc2ccc(N3CCNCC3)cc2)nc1-n1cc(C(N)=O)c2ccccc21 [Compound 36, 1-[5-methoxy-2-(4-piperazin-1-yl-phenylamino)-pyrimidin-4-yl]-1H-indole-3-carboxamide]
1 to 10 nM | CC(C)Oc1cc(Nc2nccc(-n3cc(C(N)=O)c4ccccc43)n2)ccc1N(C)CCN(C)C [Compound 81, 1-(2-{4-[(2-dimethylamino-ethyl)-methyl-amino]-3-isopropoxy-phenylamino}-pyrimidin-4-yl)-1H-indole-3-carboxamide]

Structure (SMILES) | IC50
NC(=O)c1cn(-c2nc(Nc3cccc(N4CCN(CC5CO5)CC4)c3)ncc2F)c2ccccc12 (stereo not drawn) [Compound 156, 1-{5-fluoro-2-[3-(4-oxiranylmethyl-piperazin-1-yl)-phenylamino]-pyrimidin-4-yl}-1H-indole-3-carboxamide] | 10 to 100 nM
